From patent US10112899B2 (ViiV HEALTHCARE UK LIMITED, priority 2014, dated 2018)
pIC50: −log10 of the molar value.

These compounds were tested on HIV in the HTLV-1 transformed cell line MT-4 (assay: organism not typed). Conditions: MT4, 96 h, MT-4 cells; luciferase/cell titer glo readout after 96 hours; 10 point dose response.
Format: cell-based

In order of rising pIC50:
1. Cc1c(-c2c(C)c3c(c(C)c2[C@H](OC(C)(C)C)C(=O)O)CN(C(=O)c2cccc4c2OCO4)C3)cc(F)c2c1NCCO2 [Example 310, (2S)-2-(2-(benzo[d][1,3]dioxole-4-carbonyl)-6-(8-fluoro-5-methyl-3,4-dihydro-2H-benzo[b][1,4]oxazin-6-yl)-4,7-dimethylisoindolin-5-yl)-2-(tert-butoxy)acetic acid]  7.74
2. Cc1c(-c2c(C)c3c(c(C)c2[C@H](OC(C)(C)C)C(=O)O)CN(C(=O)N2CCC(F)(F)C2)C3)cc(F)c2c1NCCO2 [Example 315, (2S)-2-(tert-butoxy)-2-(2-(3,3-difluoropyrrolidine-1-carbonyl)-6-(8-fluoro-5-methyl-3,4-dihydro-2H-benzo[b][1,4]oxazin-6-yl)-4,7-dimethylisoindolin-5-yl) acetic acid]  7.82
3. Cc1cc(Cl)ccc1-c1c(C)c2c(c(C)c1C(OC(C)(C)C)C(=O)O)CN(C(=O)N1CCC(F)(F)C1)C2 (stereo not drawn) [Example 323, 2-(tert-butoxy)-2-(6-(4-chloro-2-methylphenyl)-2-(3,3-difluoropyrrolidine-1-carbonyl)-4,7-dimethylisoindolin-5-yl)acetic acid]  7.89
4. Cc1cc(Cl)ccc1-c1c(C)c2c(c(C)c1[C@H](OC(C)(C)C)C(=O)O)CN(C(=O)C1CCCCC1)C2 [Example 324, (2S)-2-(tert-butoxy)-2-(6-(4-chloro-2-methylphenyl)-2-(cyclohexanecarbonyl)-4,7-dimethylisoindolin-5-yl)acetic acid]  7.89
5. Cc1cc(Cl)ccc1-c1c(C)c2c(c(C)c1[C@H](OC(C)(C)C)C(=O)O)CN(C(=O)CC(C)(C)C)C2 [Example 325, (2S)-2-(tert-butoxy)-2-(6-(4-chloro-2-methylphenyl)-2-(3,3-dimethylbutanoyl)-4,7-dimethylisoindolin-5-yl)acetic acid]  7.89
6. Cc1c(-c2c(C)c3c(c(C)c2[C@H](OC(C)(C)C)C(=O)O)CN(C(=O)N2CCCCC2)C3)cc(F)c2c1NCCO2 [Example 318, (2S)-2-(tert-butoxy)-2-(6-(8-fluoro-5-methyl-3,4-dihydro-2H-benzo[b][1,4]oxazin-6-yl)-4,7-dimethyl-2-(piperidine-1-carbonyl)isoindolin-5-yl)acetic acid]  8.30
7. Cc1c2c(c(C)c([C@H](OC(C)(C)C)C(=O)O)c1-c1ccc3c(c1)CCCO3)CN(C(=O)c1cccc(F)c1)C2 [Example 304, (S)-2-(tert-butoxy)-2-(6-(chroman-6-yl)-2-(3-fluorobenzoyl)-4,7-dimethylisoindolin-5-yl)acetic acid]  8.40
8. Cc1c2c(c(C)c([C@H](OC(C)(C)C)C(=O)O)c1C1=CCC(C)(C)CC1)CN(C(=O)c1cccc3c1OCO3)C2 [Example 307, (S)-2-(2-(benzo[d][1,3]dioxole-4-carbonyl)-6-(4,4-dimethylcyclohex-1-en-1-yl)-4,7-dimethylisoindolin-5-yl)-2-(tert-butoxy)acetic acid]  8.40
9. Cc1c2c(c(C)c([C@H](OC(C)(C)C)C(=O)O)c1-c1ccc(Cl)cc1)CN(C(=O)c1cccc3c1OCO3)C2 [Example 308, (S)-2-(2-(benzo[d][1,3]dioxole-4-carbonyl)-6-(4-chlorophenyl)-4,7-dimethylisoindolin-5-yl)-2-(tert-butoxy)acetic acid]  8.40
10. Cc1ccc(-c2c(C)c3c(c(C)c2[C@H](OC(C)(C)C)C(=O)O)CN(C(=O)c2cccc4c2OCO4)C3)c(Cl)c1 [Example 309, (2S)-2-(2-(benzo[d][1,3]dioxole-4-carbonyl)-6-(2-chloro-4-methylphenyl)-4,7-dimethylisoindolin-5-yl)-2-(tert-butoxy)acetic acid]  8.40
11. Cc1c2c(c(C)c([C@H](OC(C)(C)C)C(=O)O)c1-c1ccc3c(c1)CCCO3)CN(C(=O)N1CCC(F)(F)C1)C2 [Example 313, (S)-2-(tert-butoxy)-2-(6-(chroman-6-yl)-2-(3,3-difluoropyrrolidine-1-carbonyl)-4,7-dimethylisoindolin-5-yl)acetic acid]  8.40
12. Cc1ccc(-c2c(C)c3c(c(C)c2[C@H](OC(C)(C)C)C(=O)O)CN(C(=O)N2CCC(F)(F)C2)C3)c(Cl)c1 [Example 314, (2S)-2-(tert-butoxy)-2-(6-(2-chloro-4-methylphenyl)-2-(3,3-difluoropyrrolidine-1-carbonyl)-4,7-dimethylisoindolin-5-yl)acetic acid]  8.40
13. Cc1c(-c2c(C)c3c(c(C)c2[C@H](OC(C)(C)C)C(=O)O)CN(C(=O)N2CCCCC2)C3)ccc2c1NCCO2 [Example 319, (2S)-2-(tert-butoxy)-2-(4,7-dimethyl-6-(5-methyl-3,4-dihydro-2H-benzo[b][1,4]oxazin-6-yl)-2-(piperidine-1-carbonyl)isoindolin-5-yl)acetic acid]  8.40
14. Cc1c2c(c(C)c([C@H](OC(C)(C)C)C(=O)O)c1-c1ccc3c(c1)CCCO3)CN(C(=O)N1CCCCC1)C2 [Example 317, (S)-2-(tert-butoxy)-2-(6-(chroman-6-yl)-4,7-dimethyl-2-(piperidine-1-carbonyl)isoindolin-5-yl)acetic acid]  8.52
15. Cc1c(-c2c(C)c3c(c(C)c2[C@H](OC(C)(C)C)C(=O)O)CN(C(=O)N2CCC(F)(F)C2)C3)ccc2c1CCCO2 [Example 320, (2S)-2-(tert-butoxy)-2-(2-(3,3-difluoropyrrolidine-1-carbonyl)-4,7-dimethyl-6-(5-methylchroman-6-yl)isoindolin-5-yl)acetic acid]  8.52
16. Cc1c(-c2c(C)c3c(c(C)c2[C@H](OC(C)(C)C)C(=O)O)CN(C(=O)c2cccc(F)c2)C3)ccc2c1CCCO2 [Example 305, (2S)-2-(tert-butoxy)-2-(2-(3-fluorobenzoyl)-4,7-dimethyl-6-(5-methylchroman-6-yl)isoindolin-5-yl)acetic acid]  8.70
17. Cc1c(-c2c(C)c3c(c(C)c2[C@H](OC(C)(C)C)C(=O)O)CN(C(=O)N2CCCCC2)C3)ccc2c1CCCO2 [Example 321, (2S)-2-(tert-butoxy)-2-(4,7-dimethyl-6-(5-methylchroman-6-yl)-2-(piperidine-1-carbonyl)isoindolin-5-yl)acetic acid]  8.70

Same assay, conditions: MT-4 cells; luciferase/cell titer glo readout after 96 hours; 10 point dose response

In order of falling pIC50:
1. Cc1c(-c2c(C)c3c(c(C)c2[C@H](OC(C)(C)C)C(=O)O)CN(C(=O)c2cccc(F)c2)C3)ccc2c1NCCO2 [Example 303, (2S)-2-(tert-butoxy)-2-(2-(3-fluorobenzoyl)-4,7-dimethyl-6-(5-methyl-3,4-dihydro-2H-benzo[b][1,4]oxazin-6-yl)isoindolin-5-yl)acetic acid]  8.30
2. Cc1ccc(-c2c(C)c3c(c(C)c2[C@H](OC(C)(C)C)C(=O)O)CN(C(=O)N2CCCCC2)C3)c(Cl)c1 [Example 322, (2S)-2-(tert-butoxy)-2-(6-(2-chloro-4-methylphenyl)-4,7-dimethyl-2-(piperidine-1-carbonyl)isoindolin-5-yl)acetic acid]  8.30
3. Cc1c(-c2c(C)c3c(c(C)c2[C@H](OC(C)(C)C)C(=O)O)CN(C(=O)c2cccc(F)c2)C3)ccc2c1NCCO2 [Example 311, (2S)-2-(tert-butoxy)-2-(2-(3-fluorobenzoyl)-4,7-dimethyl-6-(5-methyl-3,4-dihydro-2H-benzo[b][1,4]oxazin-6-yl)isoindolin-5-yl)acetic acid]  7.82
4. Cc1ccc(-c2c(C)c3c(c(C)c2[C@H](OC(C)(C)C)C(=O)O)CN(C(=O)N2CCCCC2)C3)c(Cl)c1 [Example 316, (2S)-2-(tert-butoxy)-2-(6-(2-chloro-4-methylphenyl)-4,7-dimethyl-2-(piperidine-1-carbonyl)isoindolin-5-yl)acetic acid]  7.39
